Laboratory results: ChEMBL document CHEMBL3108752, “Iridal-type triterpenoids with neuroprotective activities from Iris tectorum” (2014)

Each compound was assayed on PC-12 (assay: Neuroprotective activity against serum-deprivation-induced damage in rat PC12 cells assessed as survival rate at 10 uM after 48 hrs by MTT assay relative to control). Settings: PC-12, 48 h, read-out: Survival.
Type: functional
Work on CC(C)=CCC/C(=C\[C@H]1C=C(CO)[C@@H]2CC[C@]3([C@H](CCCO)/C(=C(/C)C=O)CC[C@]3(C)O)[C@@H]2O1)CO yielded a viability at 10 µM of 54.1%.
Work on CC(C)=CCC/C(=C\[C@H]1C=C(CO)[C@@H]2CC[C@]3([C@H](CCCO)/C(=C(\C)C=O)CC[C@]3(C)O)[C@@H]2O1)CO yielded a viability at 10 µM of 50.9%.
CC(C)=CCC/C(C)=C/[C@H]1C=C(CO)[C@@H]2CC[C@]3([C@H](CCCO)/C(=C(/C)C=O)CC[C@]3(C)O)[C@@H]2O1 gave a viability at 10 µM of 63.8%.
